Structures are written as SMILES.

The test system of the experiment is range of tumour models. The experiment is described as follows: anti-tumour activity in a range of models. The class given is in vivo. As to conditions: once-daily oral administration.

As for `COc1cc2c(Oc3ccc4[nH]c(C)cc4c3F)ncnc2cc1OCCCN1CCCC1` [AZD2171, 4-(4-fluoro-2-methyl-1H-indol-5-yloxy)-6-methoxy-7-(3-(pyrrolidin-1-yl)propoxy)quinazoline], the “anti-tumour activity in a range of models” value is on record as “broad-spectrum anti-tumour activity”.

(Values after patent publication US20110256240A1, “Combination Therapy” (priority 2004, published 2011).)
